Reference: patent publication US11566007B2, “Ras inhibitors” (Revolution Medicines, Inc., priority 2019, dated 2023)
Where two headings read alike, the source gives them in different places.

What was measured:
KRAS G12V = KRAS G12V (Homo sapiens (Human), UniProt P01116+P62937, G12V); assay: Ras-Raf (BRAF RBD) disruption / FRET / MOA assay, KRAS G12V; format: biochemical; settings: read-out: IC50* KRAS G12V FRET data
Summary of the method: (§1)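 Ternary complex formation (Ras–compound–cyclophilin A) displacing BRAF RBD, monitored by TR-FRET. Three hours at 25° C with compound (top 30 μM final), then 1.5 h with the labelled antibodies. Lower ratio than DMSO indicates disruption; IC50 reported.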

KRAS G12D = KRAS G12D (Homo sapiens (Human), UniProt P01116+P62937, G12D); assay: Ras-Raf (BRAF RBD) disruption / FRET / MOA assay, KRAS G12D; format: biochemical; settings: Ras-Raf disruption/FRET/MOA assay; class symbols; read-out: KRAS G12D FRET data IC50
Sequence of KRAS G12D (P01116-2 other isoform, or with tags, fused parts or gaps G12D): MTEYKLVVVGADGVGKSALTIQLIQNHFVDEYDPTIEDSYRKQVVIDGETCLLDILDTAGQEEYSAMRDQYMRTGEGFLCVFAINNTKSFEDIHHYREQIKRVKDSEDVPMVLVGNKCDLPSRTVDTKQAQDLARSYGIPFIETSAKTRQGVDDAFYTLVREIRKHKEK
Sequence of KRAS G12D (P62937 whole entry): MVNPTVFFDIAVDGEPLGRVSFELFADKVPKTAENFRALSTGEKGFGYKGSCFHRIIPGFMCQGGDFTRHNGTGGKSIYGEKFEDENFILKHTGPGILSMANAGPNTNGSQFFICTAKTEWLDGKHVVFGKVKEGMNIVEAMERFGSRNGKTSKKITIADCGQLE
Summary of the method: as §1

KRAS G12S = KRAS G12S (Homo sapiens (Human), UniProt P01116+P62937, G12S); assay: Ras-Raf (BRAF RBD) disruption / FRET / MOA assay, KRAS G12S; format: biochemical; settings: Ras-Raf disruption/FRET/MOA assay; class symbols; read-out: KRAS G12S FRET data IC50
Sequence of KRAS G12S (P01116-2 other isoform, or with tags, fused parts or gaps G12S): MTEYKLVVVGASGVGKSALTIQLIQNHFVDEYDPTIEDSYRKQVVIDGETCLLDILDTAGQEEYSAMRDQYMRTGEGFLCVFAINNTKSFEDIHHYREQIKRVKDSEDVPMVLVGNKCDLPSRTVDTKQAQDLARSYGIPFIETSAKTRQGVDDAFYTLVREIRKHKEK
Sequence of KRAS G12S (P62937 whole entry): as the sequence (P62937 whole entry) above
Summary of the method: as §1

K-Ras G12C = K-Ras G12C (Homo sapiens (Human), UniProt P01116+P62937, G12C); assay: Ras-Raf (BRAF RBD) disruption / FRET / MOA assay, KRAS G12C; format: biochemical; settings: KRAS G12C; Ras-Raf disruption/FRET/MOA assay; read-out: IC50* KRAS G12C FRET data
Sequence of K-Ras G12C (P01116-2 other isoform, or with tags, fused parts or gaps G12C): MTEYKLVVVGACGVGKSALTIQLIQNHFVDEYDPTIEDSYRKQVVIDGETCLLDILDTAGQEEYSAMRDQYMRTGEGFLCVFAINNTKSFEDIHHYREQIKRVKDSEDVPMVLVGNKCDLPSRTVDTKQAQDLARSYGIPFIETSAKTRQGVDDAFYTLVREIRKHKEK
Sequence of K-Ras G12C (P62937 whole entry): as the sequence (P62937 whole entry) above
Summary of the method: as §1

[1] = system: NCI-H358 cells (K-Ras G12C); assay: Potency assay: pERK in NCI-H358 cells; format: cell-based, human; settings: Homo sapiens, NCI-H358; H358 KRAS G12C; read-out: pERK EC50
Summary of the method: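 4 h cpd, 37 °C; 10-pt 3-fold series, 10 mM DMSO top stock, duplicates. Readout pERK: AlphaLISA SureFire Ultra or In-Cell Western (IR-800CW secondary, DRAQ5 DNA stain). IC50, 4-PL fit vs log conc.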

KRAS WT = KRAS WT (Homo sapiens (Human), UniProt P01116+P62937); assay: Ras-Raf (BRAF RBD) disruption / FRET / MOA assay, KRAS WT; format: biochemical; settings: read-out: IC50* KRAS WT FRET data
Sequence of KRAS WT (P01116-2 other isoform, or with tags, fused parts or gaps): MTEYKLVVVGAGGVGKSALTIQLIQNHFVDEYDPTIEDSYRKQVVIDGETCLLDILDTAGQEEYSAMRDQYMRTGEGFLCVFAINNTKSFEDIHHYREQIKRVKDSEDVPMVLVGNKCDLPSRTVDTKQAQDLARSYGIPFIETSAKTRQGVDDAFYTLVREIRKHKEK
Sequence of KRAS WT (P62937 whole entry): as the sequence (P62937 whole entry) above
Summary of the method: as §1

NRAS G12C = NRAS G12C (Homo sapiens (Human), UniProt P01111+P62937, G12C); assay: Ras-Raf (BRAF RBD) disruption / FRET / MOA assay, NRAS G12C; format: biochemical; settings: read-out: IC50* NRAS G12C FRET data
Sequence of NRAS G12C (P01111 whole entry G12C): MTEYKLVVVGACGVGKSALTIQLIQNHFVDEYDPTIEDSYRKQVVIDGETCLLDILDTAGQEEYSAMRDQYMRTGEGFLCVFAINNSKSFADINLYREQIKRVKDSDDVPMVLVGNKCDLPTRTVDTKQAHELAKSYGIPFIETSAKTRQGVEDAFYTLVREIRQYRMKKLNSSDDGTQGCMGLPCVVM
Sequence of NRAS G12C (P62937 whole entry): as the sequence (P62937 whole entry) above
Summary of the method: as §1

K-Ras G13C = K-Ras G13C (Homo sapiens (Human), UniProt P01116+P62937, G13C); assay: Ras-Raf (BRAF RBD) disruption / FRET / MOA assay, KRAS G13C; format: biochemical; settings: KRAS G13C; Ras-Raf disruption/FRET/MOA assay; read-out: IC50* KRAS G13C FRET data
Sequence of K-Ras G13C (P01116-2 other isoform, or with tags, fused parts or gaps G13C): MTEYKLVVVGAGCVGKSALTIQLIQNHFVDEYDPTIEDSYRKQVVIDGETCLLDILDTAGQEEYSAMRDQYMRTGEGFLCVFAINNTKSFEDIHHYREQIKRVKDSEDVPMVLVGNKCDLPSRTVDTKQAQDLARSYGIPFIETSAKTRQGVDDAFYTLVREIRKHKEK
Sequence of K-Ras G13C (P62937 whole entry): as the sequence (P62937 whole entry) above
Summary of the method: as §1

NCI-H358 (K-Ras G12C) = assay: CellTiter-Glo cell viability assay, NCI-H358; format: cell-based, human; settings: Homo sapiens, NCI-H358, 120 h, class symbols
Summary of the method: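 Viability of K-Ras mutant lines is measured by ATP luminescence after five days of compound treatment. Percent of DMSO control is calculated and dose-response data are fitted with a four-parameter logistic equation.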

KRAS G13D = KRAS G13D (Homo sapiens (Human), UniProt P01116+P62937, G13D); assay: Ras-Raf (BRAF RBD) disruption / FRET / MOA assay, KRAS G13D; format: biochemical; settings: read-out: IC50* KRAS G13D FRET data
Sequence of KRAS G13D (P01116-2 other isoform, or with tags, fused parts or gaps G13D): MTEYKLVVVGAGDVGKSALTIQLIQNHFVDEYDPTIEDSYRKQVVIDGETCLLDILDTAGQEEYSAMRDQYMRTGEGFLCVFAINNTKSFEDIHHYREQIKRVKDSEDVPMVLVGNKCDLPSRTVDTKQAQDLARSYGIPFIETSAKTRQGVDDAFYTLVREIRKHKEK
Sequence of KRAS G13D (P62937 whole entry): as the sequence (P62937 whole entry) above
Summary of the method: as §1

[2] = NCI-H358, 5-day treatment, read-out: Additional H358 Cell Viability assay data (K-Ras G12C, IC50)

Sequence of KRAS G12V (P01116-2 other isoform, or with tags, fused parts or gaps G12V): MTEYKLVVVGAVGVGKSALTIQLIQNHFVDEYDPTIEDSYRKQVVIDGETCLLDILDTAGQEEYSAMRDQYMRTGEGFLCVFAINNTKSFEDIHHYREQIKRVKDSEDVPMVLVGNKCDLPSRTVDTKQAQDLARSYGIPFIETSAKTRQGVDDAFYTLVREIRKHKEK
Sequence of KRAS G12V (P62937 whole entry): as the sequence (P62937 whole entry) above

Row | IC50 (KRAS G12V) [nM] | IC50 (KRAS G12D) [nM] | IC50 (KRAS G12S) [nM] | IC50 (K-Ras G12C) [nM] | EC50 [1] [nM] | IC50 (KRAS WT) [nM] | IC50 (NRAS G12C) [nM] | IC50 (K-Ras G13C) [nM] | IC50 (NCI-H358 (K-Ras G12C); [2]) [µM] | IC50 (KRAS G13D) [nM] | SMILES | IC50 (NCI-H358 (K-Ras G12C); read-out: Additional H358 Cell Viability assay data (K-Ras G12C, IC50, uM), NCI-H358, 5-day treatment) [µM]
1 | 100 to 1000 | > 10000 | 1000 to 10000 | 10 to 100 | < 5000 | 1000 to 10000 | 100 to 1000 | 100 to 1000 | 0.01 to 0.1 | 1000 to 10000 | CCn1c(-c2cccnc2COC)c2c3cc(ccc31)-c1cc(O)cc(c1)C[C@H](NC(=O)[C@H](C(C)C)N(C)C(=O)[C@H]1CCN(C(=O)C#CC3(N(C)C)CC3)C1)C(=O)N1CCC[C@H](N1)C(=O)OCC(C)(C)C2 [Example A238] | –
2 | 10 to 100 | 100 to 1000 | 10 to 100 | < 10 | < 5000 | 100 to 1000 | < 10 | 10 to 100 | < 0.01 | 100 to 1000 | CCn1c(-c2cccnc2[C@H](C)OC)c2c3cc(ccc31)-c1cc(O)cc(c1)C[C@H](NC(=O)[C@H](C(C)C)N(C)C(=O)[C@H]1CCN(C(=O)C#CCOC)C1)C(=O)N1CCC[C@H](N1)C(=O)OCC(C)(C)C2 [Example A266] | –
3 | > 10000 | > 10000 | > 10000 | 1000 to 10000 | < 5000 | > 10000 | 1000 to 10000 | > 10000 | 0.1 to 1 | > 10000 | C=CC(=O)N1CC[C@H](C(=O)N(C)[C@H](C(=O)N[C@H]2Cc3cc(O)cc(c3)-c3ccc4c(c3)c(c(-c3cnccc3[C@@H](OC)C3CC3)n4CC)CC(C)(C)COC(=O)[C@@H]3CCCN(N3)C2=O)C(C)C)C1 [Example A274] | –
4 | 10 to 100 | 100 to 1000 | 10 to 100 | 10 to 100 | < 5000 | 10 to 100 | 10 to 100 | 10 to 100 | < 0.01 | 100 to 1000 | C=CC(=O)N1CCC2(CCN([C@H](C(=O)N[C@H]3Cc4cc(O)cc(c4)-c4ccc5c(c4)c(c(-c4cccnc4[C@H](C)OC)n5CC)CC(C)(C)COC(=O)[C@@H]4CCCN(N4)C3=O)C(C)C)C2=O)C1 (stereo partly shown) [Example A295] | –

The remaining lines, values behind:

Row | SMILES | IC50 (KRAS G12V) [nM] | IC50 (KRAS G12D) [nM] | IC50 (KRAS G12S) [nM] | IC50 (K-Ras G12C) [nM] | EC50 [1] [nM] | IC50 (KRAS WT) [nM] | IC50 (NRAS G12C) [nM] | IC50 (K-Ras G13C) [nM] | IC50 (NCI-H358 (K-Ras G12C); [2]) [µM] | IC50 (KRAS G13D) [nM] | IC50 (NCI-H358 (K-Ras G12C); read-out: Additional H358 Cell Viability assay data (K-Ras G12C, IC50, uM), NCI-H358, 5-day treatment) [µM]
5 | C=CC(=O)N1CC[C@H](C(=O)N(C)c2ccccc2C(=O)N[C@H]2Cc3cc(O)cc(c3)-c3ccc4c(c3)c(c(-c3cnccc3COC)n4CC)CC(C)(C)COC(=O)[C@@H]3CCCN(N3)C2=O)C1 [Example A228] | > 10000 | > 10000 | > 10000 | 1000 to 10000 | < 5000 | > 10000 | 1000 to 10000 | > 10000 | > 1 | > 10000 | –
6 | C=CC(=O)N1CC(OC[C@H](C(=O)N[C@H]2Cc3cc(O)cc(c3)-c3ccc4c(c3)c(c(-c3cccnc3COC)n4CC)CC(C)(C)COC(=O)[C@@H]3CCCN(N3)C2=O)C(C)C)C1 [Example A232] | 1000 to 10000 | > 10000 | > 10000 | 100 to 1000 | < 5000 | 1000 to 10000 | 100 to 1000 | 100 to 1000 | 0.01 to 0.1 | 1000 to 10000 | –
7 | CCn1c(-c2cccnc2COC)c2c3cc(ccc31)-c1cc(O)cc(c1)C[C@H](NC(=O)[C@H](C(C)C)N(C)C(=O)[C@H]1CCN(C(=O)C#CCN3[C@H](C)COC[C@@H]3C)C1)C(=O)N1CCC[C@H](N1)C(=O)OCC(C)(C)C2 [Example A237] | 100 to 1000 | 1000 to 10000 | 100 to 1000 | 10 to 100 | < 5000 | 1000 to 10000 | 10 to 100 | 100 to 1000 | < 0.01 | 1000 to 10000 | –
8 | C=CC(=O)N1CC[C@H](C(=O)N(C)[C@H](C(=O)N[C@@H]2C(=O)N3CCC[C@H](N3)C(=O)OCC(C)(C)Cc3c(-c4cncnc4)n(CC)c4ccc(cc34)-c3cccc(c3)[C@H]2O)C(C)C)C1 [Example A272] | > 10000 | > 10000 | > 10000 | 1000 to 10000 | < 5000 | > 10000 | > 10000 | > 10000 | > 1 | > 10000 | –
9 | CCn1c(-c2cccnc2[C@H](C)OC)c2c3cc(ccc31)-c1csc(n1)C[C@H](NC(=O)[C@H](C(C)C)N(C)C(=O)[C@H]1CCC(C(=O)/C=C/CN(C)C)C1)C(=O)N1CCC[C@H](N1)C(=O)OCC(C)(C)C2 (stereo partly shown) [Example A282] | 1000 to 10000 | 1000 to 10000 | 1000 to 10000 | 100 to 1000 | < 5000 | 1000 to 10000 | 100 to 1000 | 1000 to 10000 | 0.01 to 0.1 | 1000 to 10000 | –
10 | C=CS(=O)(=O)N1CCC2(CCN([C@H](C(=O)N[C@H]3Cc4cc(O)cc(c4)-c4ccc5c(c4)c(c(-c4cccnc4[C@H](C)OC)n5CC)CC(C)(C)COC(=O)[C@@H]4CCCN(N4)C3=O)C(C)C)C2=O)C1 (stereo partly shown) [Example A298] | 10 to 100 | 100 to 1000 | 10 to 100 | < 10 | < 5000 | 10 to 100 | < 10 | < 10 | < 0.01 | 10 to 100 | –
11 | CCn1c(-c2cccnc2[C@H](C)OC)c2c3cc(ccc31)-c1cccc(c1)C[C@H](NC(=O)[C@H](C(C)C)N(C)C(=O)[C@H]1CCN(C(=O)C#C[C@]3(C)CCCN3C)C1)C(=O)N1CCC[C@H](N1)C(=O)OCC(C)(C)C2 [Example A317] | 1000 to 10000 | > 10000 | 1000 to 10000 | < 10 | < 5000 | 1000 to 10000 | 10 to 100 | 1000 to 10000 | < 0.01 | > 10000 | –
12 | C=CC(=O)N1C2CC1CN(C(=O)N(C)[C@H](C(=O)N[C@H]1Cc3nc(cs3)-c3ccc4c(c3)c(c(-c3cccnc3[C@H](C)OC)n4CC)CC(C)(C)COC(=O)[C@@H]3CCCN(N3)C1=O)C(C)C)C2 [Example A408] | 100 to 1000 | 1000 to 10000 | 100 to 1000 | 100 to 1000 | < 5000 | 100 to 1000 | 100 to 1000 | 100 to 1000 | – | 1000 to 10000 | 0.01 to 0.1
13 | C=CC(=O)N1CC[C@H](C(=O)N(C)[C@H](C(=O)N[C@H]2Cc3csc(n3)-c3ccc4c(c3)c(c(-c3cc(N5CCN(C)CC5)cnc3[C@H](C)OC)n4CC(F)(F)F)CC(C)(C)COC(=O)[C@@H]3CCCN(N3)C2=O)C(C)C)C1 [Example A410] | 100 to 1000 | 1000 to 10000 | 100 to 1000 | 10 to 100 | < 5000 | 100 to 1000 | 10 to 100 | 100 to 1000 | < 0.01 | 100 to 1000 | –
